Results taken from ChEMBL document CHEMBL6078621, “Macrocyclic-based strategy in drug design: From lab to the clinic” (Eur J Med Chem, 2024).
One block for each compound: values may come before it. Starred links: 1 amine or outer side, 2 acyl side, 3 side chain; linkers in the order of their positions; H or OH if unused. Positions of bridges follow the written chain, without caps; N, C: chain ends. Non-standard residues stand in square brackets, D forms with d. Residues, ends and D or L forms follow the SMILES beside them. *: point of attachment. Phe(4-Cl) = N[C@@H](Cc1ccc(Cl)cc1)C(=O)O; 2Thi = N[C@@H](Cc1cccs1)C(=O)O; Agmatine = N=C(N)NCCCCN*; X1 = O=C(CCC[*:2])[*:1]; Mpa = O=C(O)CCS; NEt2 = CCN(CC)*

Legend:
[1] = Clearance in Sprague-Dawley rat at 0.5 mg/kg, iv by LC-MS/MS analysis; type: ADME, organism-based; conditions: in vivo
[2] = in vitro; conditions: human, liver microsomes
[3] = Solubility of the compound; type: physicochemical
[4] = Cmax in human at 8 mg/kg, po; type: ADME, organism-based; conditions: in vivo
[5] = Oral bioavailability in Sprague-Dawley rat at 5 mg/kg by LC-MS/MS analysis; type: ADME, organism-based; conditions: in vivo
[6] = Plasma protein binding in human; type: ADME, cell-free; conditions: read-out: PPB
[7] = Oral bioavailability in human; type: ADME, organism-based; conditions: in vivo
[8] = Half life in dog; type: ADME, Canis lupus familiaris; conditions: in vivo
[9] = Half life in mouse; type: ADME, organism-based; conditions: in vivo
[10] = Half life in rat; type: ADME; conditions: in vivo
[11] = AUC in Sprague-Dawley rat at 10 mg/kg, po by LC-MS/MS analysis; type: ADME, organism-based; conditions: in vivo
[12] = Microsomal stability in human liver microsomes assessed as intrinsic clearance; type: ADME, Microsome
[13] = AUC in Sprague-Dawley rat at 2 mg/kg, iv by LC-MS/MS analysis; type: ADME, organism-based; conditions: in vivo
[14] = AUC in Wistar rat; type: ADME; conditions: in vivo
[15] = Plasma clearance in Sprague-Dawley rat at 1 mg/kg, iv measured upto 24 hrs by LC-MS/MS analysis; type: ADME, organism-based
[16] = tested on: Huh-7; test: Cytotoxicity against human Huh-7 cells assessed as inhibition of cell viability incubated for 24 hrs by MTT assay; type: functional
[17] = Intrinsic clearance in human liver microsomes; type: ADME, Microsome

SMILES: CCN(CC)C(=O)[C@@H](CCCNC(=N)N)NC(=O)[C@@H]1CCCN1C(=O)[C@@H]1CSCCCC(=O)N[C@@H](Cc2ccc(Cl)cc2)C(=O)N[C@@H](Cc2cccs2)C(=O)N[C@@H](C(C)C)C(=O)N[C@@H](CC(N)=O)C(=O)N1 ([Phe(4-Cl)][2Thi]VNCP[dR]-NEt2; linker N-5 via X1)
- clearance [1]: 42 mL/min/kg

SMILES: NC(=O)CC[C@@H]1NC(=O)[C@H](Cc2ccccc2)NC(=O)[C@H](Cc2ccc(O)cc2)NC(=O)CCSSC[C@@H](C(=O)N2CCC[C@H]2C(=O)N[C@H](CCCN=C(N)N)C(=O)NCC(N)=O)NC(=O)[C@H](CC(N)=O)NC1=O [DESMOPRESSIN]
- bioavailability [5]: 41%

SMILES: C/C1=C/C=C/[C@H](C)[C@H](O)[C@@H](C)[C@@H](O)[C@@H](C)[C@H](OC(=O)O)[C@H](C)[C@@H](OO)/C=C/O[C@@]2(C)Oc3c(C)c(O)c4c(O)c(c(/C=N/N5CCC(N(C)C6([C@@H]7CCN(c8cc9c(C%10CC%10)cc(C(=O)O)c(=O)n9cc8F)C7)CC6)CC5)c(O)c4c3C2=O)CC1=O
- half-life [8]: 96 min
- half-life [9]: 24 min
- half-life [10]: 24 min

SMILES: CC(C)[C@@H]1NC(=O)[C@H](Cc2ccccc2)NC(=O)[C@H](Cc2ccc(O)cc2)NC(=O)CCSSC[C@@H](C(=O)N2CCC[C@H]2C(=O)N[C@H](CCCNC(=N)N)C(=O)NCC(N)=O)NC(=O)[C@H](CC(N)=O)NC1=O ([Mpa]YFVNCP[dR]G-NH2; disulfide 1-6)
- clearance [1]: 9.6 mL/min/kg
- bioavailability [5]: 31%

SMILES: CC(C)[C@@H]1NC(=O)[C@H](Cc2cccs2)NC(=O)[C@H](Cc2ccc(Cl)cc2)NC(=O)CCCSC[C@@H](C(=O)N2CCC[C@H]2C(=O)NCCCCNC(=N)N)NC(=O)[C@H](CC(N)=O)NC1=O ([Phe(4-Cl)][2Thi]VNCP-Agmatine; linker N-5 via X1)
- clearance [1]: 14 mL/min/kg

Continued, in another order:

- half-life [2]: > 60 min
- solubility [3]: > 150 µg/mL
SMILES: C1=C/COCc2cc(ccc2OCCN2CCCC2)Nc2nccc(n2)-c2cccc(c2)COC/1 [PACRITINIB]

- Cmax [4]: 1400 nM
SMILES: C[C@@H]1CN[C@@H](C2CC2)C(=O)N(C)[C@H](C)C(=O)N[C@H](Cc2ccc(F)cc2)C(=O)NCCCc2ccccc2O1 [ULIMORELIN]

- fraction unbound [6]: 0.001
SMILES: CN1C/C=C/CCOc2cccc(c2)-c2ccnc(n2)Nc2cccc(c2)C1 [ZOTIRACICLIB]

- bioavailability [7]: 18%
SMILES: C[C@@H]1CCC[C@H](n2cnc(-c3cc(Cl)ccc3-n3cc(Cl)nn3)cc2=O)c2cc(ccn2)-c2c(cnn2C(F)F)NC1=O [MILVEXIAN]

- AUC [11]: 2.79 µM·h
- CLH [12]: 6 µL/min/mg
- AUC [13]: 5.21 µM·h
SMILES: COc1ccc2c(O[C@@H]3C[C@H]4C(=O)N[C@]5(C(=O)NS(=O)(=O)C6CC6)C[C@H]5/C=C\CCCCN(C)C(=O)[C@@H]4C3)cc(-c3nc(C(C)C)cs3)nc2c1C

- AUC [14]: 3.48 µM·h
SMILES: C[C@H]1Oc2cc(cnc2N)-c2c(nn(C)c2C#N)CN(C)C(=O)c2ccc(F)cc21 [LORLATINIB]

- clearance [15]: 46.5 mL/min/kg
- CLH [17]: 46 µL/min/mg
SMILES: COc1ccc2c(O[C@@H]3C[C@H]4C(=O)N[C@]5(C(=O)NS(=O)(=O)C6CC6)C[C@H]5/C=C\CCCCN(C)C(=O)[C@@H]4C3)cc(-c3ccccc3)nc2c1
- CC50 [16]: > 20 µM
